Reference: the supplement of paper PMC10307832

Tests used:
Experiment in all cases: relative viability (nuclei count vs DMSO), 5 days (fraction); higher = more cells survive
H3255 = tested on: H3255
How it was run: (§1)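 Five library-drug doses in √10 steps were combined with a fixed anchor-drug dose, or a single drug was given alone, by pin tool to lung cancer cell lines in 1536-well plates the day after seeding. Nuclei were stained and counted after 5 days. Relative viability is the nuclei count in treated wells over that in vehicle wells, taken as the median of duplicate plates.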

LCLC-103H = tested on: LCLC-103H
How it was run: as §1

LXF-289 = tested on: LXF-289
How it was run: as §1

NCI-H1437 = tested on: NCI-H1437
How it was run: as §1

UMC-11 = tested on: UMC-11
How it was run: as §1

PC-3 [JPC-3] = tested on: PC-3 [JPC-3]
How it was run: as §1

HCC-15 = tested on: HCC-15
How it was run: as §1

NCI-H2228 = tested on: NCI-H2228
How it was run: as §1

NCI-H661 = tested on: NCI-H661
How it was run: as §1

ABC-1 = tested on: ABC-1
How it was run: as §1

NCI-H2009 = tested on: NCI-H2009
How it was run: as §1

SK-MES-1 = tested on: SK-MES-1
How it was run: as §1

NCI-H23 = tested on: NCI-H23
How it was run: as §1

LC-2-ad = tested on: LC-2-ad
How it was run: as §1

HCC-827 = tested on: HCC-827
How it was run: as §1

NCI-H2342 = tested on: NCI-H2342
How it was run: as §1

NCI-H2085 = tested on: NCI-H2085
How it was run: as §1

PC-14 = tested on: PC-14
How it was run: as §1

NCI-H1666 = tested on: NCI-H1666
How it was run: as §1

NCI-H1975 = tested on: NCI-H1975
How it was run: as §1

NCI-H2087 = tested on: NCI-H2087
How it was run: as §1

COR-L23 = tested on: COR-L23
How it was run: as §1

In the case of Cc1csc(=NC2CCCCC2)n1/N=C/c1ccc(O)c(O)c1O [MIM1] + CCNC(=O)c1noc(-c2cc(C(C)C)c(O)cc2O)c1-c1ccc(CN2CCOCC2)cc1 [Luminespib] (partner 0.01 µM), the relative viability (H3255; first compound 0.2 µM) is reported as 0.865, the relative viability (H3255; first compound 0.6325 µM) is reported as 0.85 and the relative viability (H3255; first compound 2 µM) is reported as 0.798. For the same compound, the relative viability (H3255; first compound 6.325 µM) was 0.769, the relative viability (H3255; first compound 20 µM) was 0.34 and the relative viability (LCLC-103H; first compound 0.2 µM) was 1.03. The relative viability (LCLC-103H; first compound 0.6325 µM) was 0.908, the relative viability (LCLC-103H; first compound 2 µM) was 0.908 and the relative viability (LCLC-103H; first compound 6.325 µM) was 0.632. It also gave a relative viability (LCLC-103H; first compound 20 µM) of 0.419, a relative viability (LXF-289; first compound 0.2 µM) of 0.708 and a relative viability (LXF-289; first compound 0.6325 µM) of 0.649. The relative viability (LXF-289; first compound 2 µM) was 0.659, the relative viability (LXF-289; first compound 6.325 µM) was 0.54 and the relative viability (LXF-289; first compound 20 µM) was 0.453. For the same compound, the relative viability (NCI-H1437; first compound 0.2 µM) was 1.07, the relative viability (NCI-H1437; first compound 0.6325 µM) was 1.1 and the relative viability (NCI-H1437; first compound 2 µM) was 0.992. It also gave a relative viability (NCI-H1437; first compound 6.325 µM) of 0.846, a relative viability (NCI-H1437; first compound 20 µM) of 0.452 and a relative viability (UMC-11; first compound 0.2 µM) of 1.03. It also gave a relative viability (UMC-11; first compound 2 µM) of 1.23, a relative viability (UMC-11; first compound 6.325 µM) of 0.686 and a relative viability (UMC-11; first compound 20 µM) of 0.369. The relative viability (PC-3 [JPC-3]; first compound 0.2 µM) was 0.508, the relative viability (PC-3 [JPC-3]; first compound 0.6325 µM) was 0.661 and the relative viability (PC-3 [JPC-3]; first compound 2 µM) was 0.674. It also gave a relative viability (PC-3 [JPC-3]; first compound 6.325 µM) of 0.65, a relative viability (PC-3 [JPC-3]; first compound 20 µM) of 0.594 and a relative viability (HCC-15; first compound 0.2 µM) of 0.244. The relative viability (HCC-15; first compound 0.6325 µM) was 0.353, the relative viability (HCC-15; first compound 2 µM) was 0.43 and the relative viability (HCC-15; first compound 6.325 µM) was 0.259. The relative viability (HCC-15; first compound 20 µM) was 0.133, the relative viability (NCI-H2228; first compound 0.2 µM) was 0.18 and the relative viability (NCI-H2228; first compound 0.6325 µM) was 0.155. It also gave a relative viability (NCI-H2228; first compound 2 µM) of 0.181, a relative viability (NCI-H2228; first compound 6.325 µM) of 0.151 and a relative viability (NCI-H2228; first compound 20 µM) of 0.111. The relative viability (NCI-H661; first compound 0.2 µM) was 0.92, the relative viability (NCI-H661; first compound 0.6325 µM) was 0.928 and the relative viability (NCI-H661; first compound 2 µM) was 0.86. It also gave a relative viability (NCI-H661; first compound 6.325 µM) of 0.576, a relative viability (NCI-H661; first compound 20 µM) of 0.269 and a relative viability (ABC-1; first compound 0.2 µM) of 0.499. The relative viability (ABC-1; first compound 0.6325 µM) was 0.835, the relative viability (ABC-1; first compound 2 µM) was 0.497 and the relative viability (ABC-1; first compound 6.325 µM) was 0.399. It also gave a relative viability (ABC-1; first compound 20 µM) of 0.315, a relative viability (NCI-H2009; first compound 0.2 µM) of 1 and a relative viability (NCI-H2009; first compound 0.6325 µM) of 1.06. For the same compound, the relative viability (NCI-H2009; first compound 2 µM) was 1.03, the relative viability (NCI-H2009; first compound 6.325 µM) was 0.877 and the relative viability (NCI-H2009; first compound 20 µM) was 1.02. For the same compound, the relative viability (SK-MES-1; first compound 0.2 µM) was 0.754, the relative viability (SK-MES-1; first compound 0.6325 µM) was 0.828 and the relative viability (SK-MES-1; first compound 2 µM) was 0.708. For the same compound, the relative viability (SK-MES-1; first compound 6.325 µM) was 0.55, the relative viability (SK-MES-1; first compound 20 µM) was 0.215 and the relative viability (NCI-H23; first compound 0.2 µM) was 0.262. It also gave a relative viability (NCI-H23; first compound 0.6325 µM) of 0.208, a relative viability (NCI-H23; first compound 6.325 µM) of 0.198 and a relative viability (NCI-H23; first compound 20 µM) of 0.211. For the same compound, the relative viability (LC-2-ad; first compound 0.2 µM) was 1.06, the relative viability (LC-2-ad; first compound 0.6325 µM) was 0.964 and the relative viability (LC-2-ad; first compound 2 µM) was 0.727. For the same compound, the relative viability (LC-2-ad; first compound 6.325 µM) was 0.485, the relative viability (LC-2-ad; first compound 20 µM) was 0.233 and the relative viability (HCC-827; first compound 0.2 µM) was 0.517. It also gave a relative viability (HCC-827; first compound 0.6325 µM) of 0.384, a relative viability (HCC-827; first compound 2 µM) of 0.698 and a relative viability (HCC-827; first compound 6.325 µM) of 0.371. The relative viability (HCC-827; first compound 20 µM) was 0.184, the relative viability (NCI-H2342; first compound 0.2 µM) was 0.739 and the relative viability (NCI-H2342; first compound 0.6325 µM) was 0.723. The relative viability (NCI-H2342; first compound 2 µM) was 0.642, the relative viability (NCI-H2342; first compound 6.325 µM) was 0.624 and the relative viability (NCI-H2342; first compound 20 µM) was 0.985. For the same compound, the relative viability (NCI-H2085; first compound 0.2 µM) was 0.42, the relative viability (NCI-H2085; first compound 0.6325 µM) was 0.466 and the relative viability (NCI-H2085; first compound 2 µM) was 0.455. For the same compound, the relative viability (NCI-H2085; first compound 6.325 µM) was 0.442, the relative viability (NCI-H2085; first compound 20 µM) was 0.404 and the relative viability (PC-14; first compound 0.2 µM) was 0.177. The relative viability (PC-14; first compound 0.6325 µM) was 0.137, the relative viability (PC-14; first compound 2 µM) was 0.17 and the relative viability (PC-14; first compound 6.325 µM) was 0.115. It also gave a relative viability (PC-14; first compound 20 µM) of 0.144, a relative viability (NCI-H1666; first compound 0.2 µM) of 1.02 and a relative viability (NCI-H1666; first compound 0.6325 µM) of 1.13. For the same compound, the relative viability (NCI-H1666; first compound 2 µM) was 1.02, the relative viability (NCI-H1666; first compound 6.325 µM) was 0.884 and the relative viability (NCI-H1666; first compound 20 µM) was 0.767. It also gave a relative viability (NCI-H1975; first compound 0.2 µM) of 0.202, a relative viability (NCI-H1975; first compound 0.6325 µM) of 0.261 and a relative viability (NCI-H1975; first compound 2 µM) of 0.193. The relative viability (NCI-H1975; first compound 6.325 µM) was 0.279, the relative viability (NCI-H1975; first compound 20 µM) was 0.136 and the relative viability (NCI-H2087; first compound 0.2 µM) was 0.145. The relative viability (NCI-H2087; first compound 0.6325 µM) was 0.183, the relative viability (NCI-H2087; first compound 2 µM) was 0.199 and the relative viability (NCI-H2087; first compound 6.325 µM) was 0.176. It also gave a relative viability (NCI-H2087; first compound 20 µM) of 0.132, a relative viability (COR-L23; first compound 0.2 µM) of 0.555 and a relative viability (COR-L23; first compound 0.6325 µM) of 0.75. For the same compound, the relative viability (COR-L23; first compound 2 µM) was 0.7, the relative viability (COR-L23; first compound 6.325 µM) was 0.469 and the relative viability (COR-L23; first compound 20 µM) was 0.321.
